Experimental data from patent US9926294B2, “Pesticidally active heterocyclic derivatives with sulphur containing substituents” (Syngenta Participations AG, priority 2014, dated 2018).

Columns and labels:
Type in all cases: in vivo
[1] = tested on: Plutella xylostella (diamond back moth); assay: Example B3: Plutella xylostella larvicide, feeding/residual contact, preventive (artificial diet); details: 120 h, L2 larvae on artificial diet, 5 days incubation, read-out: activity (larval mortality, antifeedant, growth regulation)
Procedure: Example B3: Activity Against Plutella xylostella (Diamond Back Moth)
(Larvicide, Feeding/Residual Contact Activity, Preventive)
24-well microtiter plate (MTP) with artificial diet was treated with test solutions by pipetting. After drying, the MTPs were infested with L2 larvae (10-15 per well). After an incubation period of 5 days, samples were checked for larval mortality, antifeedant and growth regulation.

[2] = tested on: Diabrotica balteata (corn root worm); assay: Example B4: Diabrotica balteata larvae L2 on maize sprouts, feeding/contact, preventative; details: 120 h, L2 larvae on sprayed maize sprouts, 5 days incubation, read-out: activity (larval mortality, growth regulation)
Procedure: Example B4: Activity Against Diabrotica Balteata (Corn Root Worm)
(Larvae L2 on Maize Sprouts, Feeding/Contact, Preventative)
Maize sprouts, placed on an agar layer in 24 well micro titer plates were treated with test solutions by spraying. After drying, the MTPs were infested with L2 larvae (6-10 per well). After an incubation period of 5 days, samples were checked for larval mortality and growth regulation.

[3] = tested on: Myzus persicae (green peach aphid); assay: Example B5: Myzus persicae feeding/residual contact, preventive, mixed population (sunflower leaf discs); details: foliar, 144 h, mixed population on sprayed sunflower leaf discs, 6 DAT, read-out: activity (mortality, special effects)
Procedure: Example B5: Activity Against Myzus persicae (Green Peach Aphid)
(Feeding/Residual Contact Activity, Preventive), Mixed Population
(§1) Sunflower leaf discs were placed on agar in a 24-well microtiter plate and sprayed with test solutions. After drying, the leaf discs were infested with an aphid population of mixed ages. After an incubation period of 6 DAT, samples were checked for mortality and special effects (e.g. phytotoxicity).

[4] = tested on: Spodoptera littoralis (Egyptian cotton leaf worm); assay: Example B1: Spodoptera littoralis larvicide, feeding/residual contact, preventive (cotton leaf discs); details: foliar, 72 h, L1 larvae on sprayed cotton leaf discs, 3 days after treatment, read-out: activity (mortality, repellent effect, feeding behaviour, growth regulation)
Excerpt: Example B1: Activity Against Spodoptera littoralis (Egyptian Cotton Leaf Worm)
Larvicide, Feeding/Residual Contact Activity, Preventive
Cotton leaf discs were placed on agar in a 24-well microtiter plate and sprayed with test solutions.
After drying, the leaf discs were infested with 5 L1 larvae. The samples were checked for mortality, repellent effect, feeding behaviour, and growth regulation 3 days after treatment (DAT).

[5] = tested on: Euschistus heros (neotropical brown stink bug); assay: Example B10: Euschistus heros N-2 nymphs on soybean leaf; details: 120 h, N-2 nymphs on sprayed soybean leaf, 5 days after infestation
Procedure: Example B10: Activity Against Euschistus heros (Neotropical Brown Stink Bug)
(§2) Soybean leaf on agar in 24-well microtiter plates were sprayed with aqueous test solutions prepared from 10′000 ppm DMSO stock solutions. After drying the leaf were infested with N-2 nymphs. The samples were assessed for mortality 5 days after infestation.

[6] = tested on: Bemisia tabaci (cotton white fly); assay: Example B9: Bemisia tabaci adulticide contact activity, preventative; details: foliar, 168 h, adult white flies on sprayed cotton leaf discs, 7 DAT, read-out: activity (mortality, special effects)
Procedure: Example B9: Activity Against Bemisia tabaci (Cotton White Fly)
(Adulticide Contact Activity, Preventative), Adult
Cotton leaf discs were placed on agar in a 24-well microtiter plate and sprayed with test solutions. After drying, the leaf discs were infested with adult white flies. After an incubation period of 7 DAT, samples were checked for mortality and special effects (e.g. phytotoxicity).

[7] = tested on: Myzus persicae (green peach aphid); assay: Example B7: Myzus persicae systemic/feeding activity, curative, mixed population (pea seedlings); details: 144 h, roots of infested pea seedlings in test solution, 6 days after introduction, read-out: activity (mortality, special effects on the plant)
Excerpt: Example B7: Activity Against Myzus persicae (Green Peach Aphid)
(Systemic/Feeding Activity, Curative), Mixed Population
Roots of pea seedlings, infested with an aphid population of mixed ages, were placed directly in the test solutions. 6 days after introduction, samples were checked for mortality and special effects on the plant.

[8] = tested on: Spodoptera littoralis (Egyptian cotton leaf worm); assay: Example B2: Spodoptera littoralis systemic activity (lettuce on agar); details: 120 h, systemic via lettuce roots, 5 days after infestation, read-out: activity (mortality, repellent effect, feeding behavior, growth regulation)
Excerpt: Example B2: Activity Against Spodoptera littoralis (Egyptian Cotton Leaf Worm)
Test compounds were applied by pipette into 24 well plates and mixed with agar. Lettuce seeds were placed on the agar and the multi well plate is closed by another plate which contains also agar. After 7 days the roots have absorbed the compound and the lettuce has grown into the lid plate. The lettuce leaves were now cut off into the lid plate. Spodoptera eggs were pipetted through a plastic stencil on a humid gel blotting paper and the plate closed with it. The samples are checked for mortality, repellent effect, feeding behavior, and growth regulation 5 days after infestation.

[9] = tested on: Myzus persicae (green peach aphid); assay: Example B6: Myzus persicae feeding activity sachet test, mixed population; details: 120 h, sachet test in sucrose solution, 5 days after infestation
Excerpt: Example B6: Activity Against Myzus persicae (Green Peach Aphid)
(Feeding Activity Sachet Test), Mixed Population
Test compounds were applied by pipette into 24 well plates and mixed with Sucrose solution. The plates were closed with a stretched Parafilm. A plastic stencil with 24 holes is placed onto the plate and infested pea seedlings were placed directly on the Parafilm. The infested plate is closed with a gel blotting paper and another plastic stencil and then turned upside down. 5 days after infestation the samples were checked on mortality. Application rate: 12.5 ppm.

[10] = tested on: Thrips tabaci (onion thrips); assay: Example B8: Thrips tabaci mixed population, feeding/residual contact, preventive; details: foliar, 168 h, mixed population on sprayed sunflower leaf discs, 7 days incubation, read-out: activity (mortality, special effects)
Procedure: Example B8: Activity Against Thrips tabaci (Onion Thrips)
(Mixed Population, Feeding/Residual Contact Activity, Preventive)
as §1, with “a thrips” for “an aphid”, “7 days,” for “6 DAT,”

[11] = tested on: Frankliniella occidentalis (western flower thrips); assay: Example B11: Frankliniella occidentalis mixed population, feeding/contact, preventative; details: foliar, 168 h, mixed population on sprayed sunflower leaf discs, 7 DAT, read-out: activity (mortality, special effects)
Procedure: Example B11: Activity Against Frankliniella occidentalis (Western Flower Thrips)
(Mixed Population, Feeding/Contact, Preventative)
as §1, with “are” for “were”, “a Frankliniella” for “an aphid”, “7” for “6”

[12] = tested on: Tetranychus urticae (two-spotted spider mite); assay: Example B12: Tetranychus urticae mixed population on bean leaf discs; details: foliar, 192 h, mixed population (mobile stages) on sprayed bean leaf discs, 8 days after infestation
Procedure: Example B12: Activity Against Tetranychus urticae (Two-Spotted Spider Mite)
as §2, with “Bean” for “Soybean”, “leaf discs” for “leaf”, “a mite population of mixed ages.” for “N-2 nymphs.”, “on mixed population (mobile stages) 8” for “5”

| SMILES | mortality at 400 ppm [1] [%] | mortality at 400 ppm [2] [%] | mortality at 400 ppm [3] [%] | mortality at 400 ppm [4] [%] | mortality at 400 ppm [5] [%] | mortality at 400 ppm [6] [%] | mortality at 24 ppm [7] [%] | mortality at 12.5 ppm [8] [%] | mortality at 12.5 ppm [9] [%] | mortality at 400 ppm [10] [%] | mortality at 400 ppm [11] [%] | mortality at 400 ppm [12] [%] |
| --- | --- | --- | --- | --- | --- | --- | --- | --- | --- | --- | --- | --- |
| CCS(=O)(=O)c1cccnc1-c1nnc(-c2cc(C(F)(F)F)ccn2)n1C [Compound P69] | > 80 | > 80 | > 80 | > 80 | > 80 | > 80 | ≥ 80 | – | – | – | – | – |
| CCS(=O)(=O)c1cc(C(F)(F)F)cnc1-c1nnc(-c2cc(C(F)(F)F)ccn2)n1C [Compound P2, 3-ethylsulfonyl-2-[4-methyl-5-[4-(trifluoromethyl)-2-pyridyl]-1,2,4-triazol-3-yl]-5-(trifluoromethyl)pyridine] | > 80 | > 80 | > 80 | > 80 | – | > 80 | ≥ 80 | ≥ 80 | ≥ 80 | > 80 | – | – |
| CCS(=O)(=O)c1cc(C(F)(F)F)cnc1-c1nnc(-c2cccnc2)n1C [Compound P42] | – | – | – | – | – | – | – | – | – | – | > 80 | – |
| CCS(=O)(=O)c1cc(C(F)(F)F)cnc1-c1nnc(-c2ccccc2)n1C [Compound P11] | – | > 80 | – | – | – | – | – | – | – | – | – | ≥ 80 |
| CCSc1cc(C(F)(F)F)cnc1-c1nnc(-c2cc(C(F)(F)F)ccn2)n1C [Compound P1, 3-ethylsulfanyl-2-[4-methyl-5-[4-(trifluoromethyl)-2-pyridyl]-1,2,4-triazol-3-yl]-5-(trifluoromethyl)pyridine] | > 80 | > 80 | > 80 | > 80 | – | > 80 | – | – | – | > 80 | – | – |
| CCS(=O)(=O)c1cc(C(F)(F)F)ccc1-c1nnc(-c2cc(C(F)(F)F)ccn2)n1C [Compound P60] | > 80 | > 80 | > 80 | > 80 | – | > 80 | ≥ 80 | ≥ 80 | – | > 80 | – | – |
| CCS(=O)(=O)c1cc(C(F)(F)F)cnc1-c1nnc(-c2cnc(C(F)(F)F)nc2)n1C [Compound P62] | > 80 | > 80 | > 80 | > 80 | > 80 | – | – | – | – | – | – | – |
| CCn1c(-c2cc(C(F)(F)F)ccn2)nnc1-c1ncc(C(F)(F)F)cc1S(=O)(=O)CC [Compound P65] | – | > 80 | – | > 80 | – | – | – | ≥ 80 | – | > 80 | – | – |
| CCSc1cc(C(F)(F)F)ccc1-c1nnc(-c2cc(C(F)(F)F)ccn2)n1C [Compound P59] | > 80 | > 80 | > 80 | > 80 | – | > 80 | – | – | – | > 80 | – | – |
| CCS(=O)(=O)c1cc(C(F)(F)F)cnc1-c1nnc(-c2ccc(Cl)c(C(F)(F)F)c2)n1C [Compound P48] | – | > 80 | > 80 | > 80 | > 80 | > 80 | – | – | – | – | – | – |
| CCS(=O)(=O)c1cc(C(F)(F)F)cnc1-c1nnc(-c2ccc(C(F)(F)F)nc2)n1C [Compound P6] | – | – | – | – | – | – | ≥ 80 | – | – | – | – | ≥ 80 |
| CCSc1cc(OC(F)F)cnc1-c1nnc(-c2ccc(C(F)(F)F)nc2)n1C [Compound P57] | – | – | – | – | – | – | – | – | – | – | – | ≥ 80 |
| CCS(=O)(=O)c1cc(C(F)(F)F)cnc1-c1nnc(-c2cc(F)cc(F)c2)n1C [Compound P29] | > 80 | – | – | – | – | – | – | – | – | – | – | ≥ 80 |
